Data on 16 molecules can be found in patent US20100298285A1, “Biclycloheteroaryl Compounds as P2x7 Modulators and Uses Thereof” (priority 2006, published 2010).

pIC50: −log10 of the molar value.

Broadly, the pIC50 is the negative decadic logarithm of the IC50, by convention in mol/L. A low value points to a large IC50.

For this test, the system named is IL-1β release, THP-1 cells. Kind of test: IL-1β release assay in differentiated THP-1 cells stimulated with BzATP (Example 9). The format is cell-based. The conditions noted are these: Homo sapiens; THP-1 cells, BzATP 250 uM, four parameter logistic fit. In a few lines: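 THP-1 cells differentiated 16 h with 100 ng/mL LPS + 100 ng/mL IFN-γ, re-primed 2 h with fresh LPS 100 ng/mL, pretreated 30 min with compound, then stimulated with BzATP 250 uM final for 45 min. Supernatant IL-1β by ELISA; background-adjusted % inhibition, IC50 from four-parameter logistic fit.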
In turn, `Cc1ccc2c(c1NC(=O)Cc1ccc(C(F)(F)F)c(F)c1)CCN(S(=O)(=O)c1ccccc1F)C2` [Compound 3460] showed a pIC50 of 7.38. With `Cc1ccc2c(c1NC(=O)Cc1ccc(C(F)(F)F)c(F)c1)CCN(C(=O)C1(O)CC1)C2` [Compound 3468] the figure was 7.16; with `Cc1ccc2c(c1NC(=O)Cc1ccc(C(F)(F)F)c(F)c1)CCN(C(=O)C1CC1)C2` [Compound 3469], 7.28; with `Cc1ccc2c(c1NC(=O)Cc1ccc(C(F)(F)F)c(F)c1)CCN(C(=O)C(C)(C)O)C2` [Compound 3470], 7.49.

Take `Cc1ccc2c(c1NC(=O)Cc1ccc(C(F)(F)F)c(F)c1)CCN(C(=O)C1(C)CC1)C2` [Compound 3471]: the pIC50 is 6.58.

`Cc1ccc2c(c1NC(=O)Cc1ccc(C(F)(F)F)c(F)c1)CCN(C(=O)C(C)(C)CO)C2` [Compound 3472] showed a pIC50 of 6.69. The pIC50 values of the last two molecules are within 0.2 log units of each other. Molecule `Cc1ccc2c(c1NC(=O)Cc1ccc(C(F)(F)F)c(F)c1)CCN(C(=O)C1CCC1)C2` [Compound 3473] showed a pIC50 of 7.62. For `COc1ccc2c(c1NC(=O)Cc1ccc(C(F)(F)F)c(F)c1)CCN(C(=O)C(C)(C)C)C2` [Compound 3474, N-[2-(2,2-Dimethyl-propionyl)-6-methoxy-1,2,3,4-tetrahydro-isoquinolin-5-yl]-2-(3-fluoro-4-trifluoromethyl-phenyl)-acetamide], the pIC50 is 6.70. Compared with the last molecule, the pIC50 is 0.92 log units lower.

In turn, `COc1ccc2c(c1NC(=O)Cc1ccc(C(F)(F)F)c(F)c1)CCN(C(=O)C1CC1)C2` [Compound 3475] had a pIC50 of 6.61. This pIC50 and that of the molecule before are within 0.2 log units of each other. On to `COc1ccc2c(c1NC(=O)Cc1ccc(C(F)(F)F)c(F)c1)CCN(C(=O)C1(O)CC1)C2` [Compound 3476, 2-(3-Fluoro-4-trifluoromethyl-phenyl)-N-[2-(1-hydroxy-cyclopropanecarbonyl)-6-methoxy-1,2,3,4-tetrahydro-isoquinolin-5-yl]-acetamide], for which the pIC50 is 6.49. `COc1ccc2c(c1NC(=O)Cc1ccc(C(F)(F)F)c(F)c1)CCN(C(=O)C1(O)CCCCC1)C2` [Compound 3477, 2-(3-Fluoro-4-trifluoromethyl-phenyl)-N-[2-(1-hydroxy-cyclohexanecarbonyl)-6-methoxy-1,2,3,4-tetrahydro-isoquinolin-5-yl]-acetamide] showed a pIC50 of 6.55.

`COc1ccc2c(c1NC(=O)Cc1ccc(C(F)(F)F)c(F)c1)CCN(C(=O)CC1(O)CCCC(C)(C)C1)C2` (stereo not shown) [Compound 3478, 2-(3-Fluoro-4-trifluoromethyl-phenyl)-N-{2-[2-(1-hydroxy-3,3-dimethyl-cyclohexyl)-acetyl]-6-methoxy-1,2,3,4-tetrahydro-isoquinolin-5-yl}-acetamide]: the pIC50 is 6.72. For `COc1ccc2c(c1NC(=O)Cc1ccc(C(F)(F)F)c(F)c1)CCN(C(=O)C(C)(C)CO)C2` [Compound 3479, 2-(3-Fluoro-4-trifluoromethyl-phenyl)-N-[2-(3-hydroxy-2,2-dimethyl-propionyl)-6-methoxy-1,2,3,4-tetrahydro-isoquinolin-5-yl]-acetamide] the value was 6.77; for `Cc1ccc2c(c1NC(=O)Cc1ccc(C(F)(F)F)c(F)c1)CCN(C(=O)[C@H]1CCN1)C2` [Compound 3480], 7.13.

On to `COc1ccc2c(c1NC(=O)Cc1ccc(C(F)(F)F)c(F)c1)CCN(C(=O)C(C)(C)O)C2` [Compound 3481], for which the negative-log IC50 (pIC50) was 6.03. Molecule `CC(C)(C)C(=O)N1CCc2c(ccc(C3CC3)c2NC(=O)Cc2ccc(C(F)(F)F)c(F)c2)C1` [Compound 3482] gave a pIC50 of 6.78.
